The record followed here is US10351548B2, “2-oxo-1,2-dihydropyridine-3-carboxamide compounds and their use as inhibitors of PDK1” (INTERNATIONAL SOCIETY FOR DRUG DEVELOPMENT S.R.L., priority 2015, dated 2019).

Where two headings read alike, the source gives them in different places.

For the assay, the target named is AMPK A1/B1/G1 (Homo sapiens (Human), UniProt Q13131). As to the kind of experiment: IB35 kinases profiling at 100 nM (ZLYTE). The format is biochemical. To be noted: IB35 100 nM, ATP Km app. An excerpt: The results are reported below
Sequence of AMPK A1/B1/G1 (Q13131 whole entry): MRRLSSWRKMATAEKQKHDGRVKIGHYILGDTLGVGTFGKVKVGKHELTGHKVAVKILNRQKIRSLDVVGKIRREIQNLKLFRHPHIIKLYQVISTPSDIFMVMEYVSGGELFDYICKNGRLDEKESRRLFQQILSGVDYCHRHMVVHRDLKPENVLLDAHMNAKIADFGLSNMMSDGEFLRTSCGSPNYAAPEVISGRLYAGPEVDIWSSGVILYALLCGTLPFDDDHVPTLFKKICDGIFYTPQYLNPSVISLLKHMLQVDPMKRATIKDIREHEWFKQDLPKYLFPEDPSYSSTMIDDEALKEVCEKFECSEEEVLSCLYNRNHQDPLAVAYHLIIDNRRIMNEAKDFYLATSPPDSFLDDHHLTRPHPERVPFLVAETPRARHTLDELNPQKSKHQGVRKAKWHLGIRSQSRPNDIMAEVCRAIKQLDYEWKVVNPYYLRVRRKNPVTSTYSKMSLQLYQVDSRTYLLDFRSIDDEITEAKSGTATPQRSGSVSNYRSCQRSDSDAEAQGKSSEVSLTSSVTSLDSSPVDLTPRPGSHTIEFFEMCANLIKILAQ
Sequence of AMPK A1/B1/G1 (Q9Y478 whole entry partner): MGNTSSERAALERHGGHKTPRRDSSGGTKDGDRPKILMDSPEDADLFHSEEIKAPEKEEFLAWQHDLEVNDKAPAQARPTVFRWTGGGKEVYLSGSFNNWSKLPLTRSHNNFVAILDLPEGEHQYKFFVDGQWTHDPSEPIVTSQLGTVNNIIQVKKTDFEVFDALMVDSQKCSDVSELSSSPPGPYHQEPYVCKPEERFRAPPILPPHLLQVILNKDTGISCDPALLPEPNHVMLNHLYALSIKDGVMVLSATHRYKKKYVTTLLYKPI
Sequence of AMPK A1/B1/G1 (P54619 whole entry partner): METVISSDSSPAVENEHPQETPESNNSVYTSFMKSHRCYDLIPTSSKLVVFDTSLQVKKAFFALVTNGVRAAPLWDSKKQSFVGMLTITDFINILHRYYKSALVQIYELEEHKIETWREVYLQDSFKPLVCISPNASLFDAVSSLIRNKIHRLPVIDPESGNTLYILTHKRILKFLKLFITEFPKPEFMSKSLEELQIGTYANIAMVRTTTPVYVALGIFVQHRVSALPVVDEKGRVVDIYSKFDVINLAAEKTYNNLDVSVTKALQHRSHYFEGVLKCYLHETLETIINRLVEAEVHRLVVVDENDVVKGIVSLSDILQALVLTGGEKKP

By inhibition is commonly meant the relative decrease from the control value, in per cent. As for `O=C(CNC(=O)c1cccn(Cc2ccc(F)c(F)c2)c1=O)Nc1ccc2c(c1)/C(=C/c1cnc[nH]1)C(=O)N2` [IB35, (Z)—N-(2-((3-((1H-imidazol-5-yl)methylene)-2-oxoindolin-5-yl)amino)-2-oxoethyl)-1-(3,4-difluorobenzyl)-2-oxo-1,2-dihydro pyridine-3-carboxamide], the inhibition at 0.1 µM runs as follows: (read-out: % Inhibition 1) 8%; (read-out: % Inhibition 2) 7%; (read-out: % Inhibition Avg) 7%.
